Experiment [1] deals with His-tagged KRAS G12D protein (Homo sapiens, UniProt P01116, G12D). Briefly: KRAS G12D TR-FRET Assay.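 Further: europium anti-His antibody paired with streptavidin-d2 as FRET partners, initial 30 min incubation, then peptide 1 h and detection reagents 1 h, all at room temperature.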 Type of experiment: binding. The note with it: biotinylated KRPep-2d substrate, 10 μM GDP.
Experiment [2] has as its target GDP-bound KRAS protein (aa 1-169), containing both G12D and C118A amino acid substitutions (Homo sapiens, UniProt P01116, C118A/G12D). Briefly: KRAS G12D Coupled Nucleotide Exchange Assay.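 Further: IC50 obtained by fitting the AlphaScreen signal with a four-parameter logistic curve.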 The following applies: 2 h compound pre-incubation; SOS-mediated nucleotide exchange, cRAF AlphaScreen readout. Type of experiment: biochemical. On the technique in general: Bead proximity is the source of the signal in Alpha formats.

Experiment [3] concerns Phosphorylation of ERK1/2 in A-427 cells. Briefly: Phospho-ERK1/2 MSD Assay. Type of experiment: cell-based. The note with it: 2 h compound treatment, read-out: pERK (A427 cells) IC50. The protocol: A-427 (ATCC® HTB-53™) cells were cultured in RPMI 1640 Medium (ThermoFisher Scientific 11875093) containing 10% fetal bovine serum (ThermoFisher Scientific 16000044) and 1× penicillin-streptomycin-glutamine (ThermoFisher Scientific 10378016). Sixteen hours prior to compound treatment, A-427 cells were seeded in 96-well cell culture plates at a density of 25,000 cells/well and incubated at 37° C., 5% CO2. A compound dose-response titration was diluted in growth media, added to appropriate wells of a cell culture plate, and then incubated at 37° C., 5% CO2 for 2 h. Following compound treatment, cells were washed with ice-cold Dulbecco's phosphate-buffered saline, no Ca^2+ or Mg^2+ (ThermoFisher Scientific 14190144), and then lysed in RIPA buffer (50 mM Tris-HCl pH 7.5, 1% Igepal, 0.5% sodium deoxycholate, 150 mM NaCl, and 0.5% sodium dodecyl sulfate) containing protease inhibitors (Roche 4693132001) and phosphatase inhibitors (Roche 4906837001). Phosphorylation of ERK1/2 in compound-treated lysates was assayed using Phospho-ERK1/2 Whole Cell Lysate kits (Meso Scale Discovery K151DWD) according to the manufacturer's protocol. Assay plates were read on a Meso Scale Discovery Sector Imager 6000, and data were analyzed using a 4-parameter logistic model to calculate IC50 values.

Where two headings read alike, the source gives them in different places.

What is called IC50 is the concentration at which inhibition is half-maximal.

Chain of His-tagged KRAS G12D protein (P01116 1-188 isoform P01116-2 G12D): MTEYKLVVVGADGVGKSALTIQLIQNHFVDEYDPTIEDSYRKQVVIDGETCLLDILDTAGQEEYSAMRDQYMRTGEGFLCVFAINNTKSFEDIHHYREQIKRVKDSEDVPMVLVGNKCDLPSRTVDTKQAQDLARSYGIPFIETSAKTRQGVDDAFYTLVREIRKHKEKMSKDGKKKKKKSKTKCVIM
Chain of GDP-bound KRAS protein (aa 1-169), containing both G12D and C118A amino acid substitutions (P01116 1-169 isoform P01116-2 G12D/C118A): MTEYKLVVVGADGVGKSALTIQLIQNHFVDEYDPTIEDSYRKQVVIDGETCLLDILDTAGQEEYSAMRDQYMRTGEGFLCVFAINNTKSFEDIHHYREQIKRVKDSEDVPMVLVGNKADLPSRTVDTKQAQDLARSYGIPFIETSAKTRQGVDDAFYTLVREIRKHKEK

For `Nc1nc2c(-c3c(Cl)cc4c(N5CC6CNCC5C6)nc(OC[C@@]56CCCN5C[C@H](F)C6)nc4c3F)ccc(F)c2s1` (single isomer, unassigned) [Example 29], the IC50 in experiment [1] is 107 nM; in experiment [3] (Homo sapiens, A-427, 2 h), 4730 nM. Further, the “Avg 2 h Coupled Exchange IC50” value in experiment [2] is 13 nM.
Take `Nc1nc2c(-c3c(Cl)cc4c(N5CC6CNCC5C6)nc(OC[C@@]56CCCN5C[C@H](F)C6)nc4c3F)ccc(F)c2s1` (single isomer, unassigned) [Example 30]: the IC50 in experiment [1] was 96 nM; in experiment [3], 7910 nM. Further, in experiment [2], the “Avg 2 h Coupled Exchange IC50” value is 15 nM.
For `Nc1nc2c(-c3c(Cl)cc4c(N5C6CCNCC5CC6)nc(OC[C@@]56CCCN5C[C@H](F)C6)nc4c3F)ccc(F)c2s1` (single isomer, unassigned) [Example 32] the same measures were 54 nM, 164 nM and 16 nM.
For `Nc1nc2c(-c3c(Cl)cc4c(N5C6CCNCC5CC6)nc(OC[C@@]56CCCN5C[C@H](F)C6)nc4c3F)ccc(F)c2s1` (single isomer, unassigned) [Example 33], the IC50 in experiment [1] stood at 63 nM; in experiment [3], 879 nM. Moreover, the “Avg 2 h Coupled Exchange IC50” value in experiment [2] came out at 10 nM.
Consider `Nc1nc2c(-c3c(Cl)cc4c(N5[C@@H]6CC[C@H]5CNC6)nc(OC[C@@]56CCCN5C[C@H](F)C6)nc4c3F)ccc(F)c2s1` [Example 2, 4-(4-((1R,5S)-3,8-diazabicyclo[3.2.1]octan-8-yl)-6-chloro-8-fluoro-2-(((2R,7aS)-2-fluorotetrahydro-1H-pyrrolizin-7a(5H)-yl)methoxy)quinazolin-7-yl)-7-fluorobenzo[d] thiazol-2-amine], for which the IC50 came to 5 nM in experiment [1] and 23 nM in experiment [3] (Homo sapiens, A-427, 2 h). Moreover, the “Avg 2 h Coupled Exchange IC50” value in experiment [2] was determined as 4 nM.
For `CN1C[C@H](F)C[C@H]1COc1nc(N2[C@@H]3CC[C@H]2CNC3)c2cc(Cl)c(-c3ccc(F)c4sc(N)nc34)c(F)c2n1` [Example 3, 4-(4-((1R,5S)-3,8-diazabicyclo[3.2.1]octan-8-yl)-6-chloro-8-fluoro-2-(((2S,4R)-4-fluoro-1-methylpyrrolidin-2-yl)methoxy)quinazolin-7-yl)-7-fluorobenzo[d] thiazol-2-amine] the same measures were 6 nM, 194 nM and 5 nM.
The matching figures for `Nc1nc2c(-c3c(Cl)cc4c(N5CCCNC(=O)C5)nc(OC[C@@]56CCCN5C[C@H](F)C6)nc4c3F)ccc(F)c2s1` [Example 4, 4-(7-(2-amino-7-fluorobenzo[d]thiazol-4-yl)-6-chloro-8-fluoro-2-(((2R,7aS)-2-fluorotetrahydro-1H-pyrrolizin-7a(5H)-yl)methoxy)quinazolin-4-yl)-1,4-diazepan-2-one]: 10 nM, 4900 nM and 5 nM.
For the compound `CN1CCC[C@H]1COc1nc(N2CC3CC(C2)N3)c2cc(Cl)c(-c3cccc4sc(N)nc34)c(F)c2n1` [Example 5, 4-(4-(3,6-diazabicyclo[3.1.1]heptan-3-yl)-6-chloro-8-fluoro-2-(((S)-1-methylpyrrolidin-2-yl)methoxy)quinazolin-7-yl)benzo[d]thiazol-2-amine], the IC50 in experiment [1] came out at 10 nM; in experiment [3] (Homo sapiens, A-427, 2 h) it was 2630 nM. Further, the “Avg 2 h Coupled Exchange IC50” value in experiment [2] was determined as 5 nM.
Turning to `Nc1nc2c(-c3c(Cl)cc4c(N5C[C@H]6C[C@@H](C5)N6)nc(OC[C@@]56CCCN5C[C@H](F)C6)nc4c3F)ccc(F)c2s1` [Example 6, 4-(4-((1R,5S)-3,6-diazabicyclo[3.1.1]heptan-3-yl)-6-chloro-8-fluoro-2-(((2R,7aS)-2-fluorotetrahydro-1H-pyrrolizin-7a(5H)-yl)methoxy)quinazolin-7-yl)-7-fluorobenzo[d] thiazol-2-amine], the IC50 was 5 nM in experiment [1] and 364 nM in experiment [3] (Homo sapiens, A-427, 2 h). Moreover, in experiment [2], the “Avg 2 h Coupled Exchange IC50” value is 5 nM.
With `CN1C[C@H](F)C[C@H]1COc1nc(N2C[C@H]3C[C@@H](C2)N3)c2cc(Cl)c(-c3ccc(F)c4sc(N)nc34)c(F)c2n1` [Example 7, 4-(4-((1R,5S)-3,6-diazabicyclo[3.1.1]heptan-3-yl)-6-chloro-8-fluoro-2-(((2S,4R)-4-fluoro-1-methylpyrrolidin-2-yl)methoxy)quinazolin-7-yl)-7-fluorobenzo[d] thiazol-2-amine], the IC50 in experiment [1] was 12 nM; in experiment [3] (Homo sapiens, A-427, 2 h) it was 531 nM. In experiment [2], the “Avg 2 h Coupled Exchange IC50” value amounted to 6 nM.
Take `Nc1nc2c(-c3c(Cl)cc4c(N5[C@@H]6CC[C@H]5CNC6)nc(OCC56CCCN5CC(F)(F)C6)nc4c3F)ccc(F)c2s1` (stereo partly drawn) [Example 9, 4-(4-((1R,5S)-3,8-diazabicyclo[3.2.1]octan-8-yl)-6-chloro-2-((2,2-difluorotetrahydro-1H-pyrrolizin-7a(5H)-yl)methoxy)-8-fluoroquinazolin-7-yl)-7-fluorobenzo[d] thiazol-2-amine]: the IC50 is 7 nM in experiment [1] and 403 nM in experiment [3] (Homo sapiens, A-427, 2 h). In addition, the “Avg 2 h Coupled Exchange IC50” value in experiment [2] worked out at 9 nM.
For `CN1CCC[C@H]1CCOc1nc(N2C[C@H]3C[C@@H](C2)N3)c2cc(Cl)c(-c3ccc(F)c4sc(N)nc34)c(F)c2n1` [Example 11, 4-(4-((1R,5S)-3,6-diazabicyclo[3.1.1]heptan-3-yl)-6-chloro-8-fluoro-2-(2-((S)-1-methylpyrrolidin-2-yl)ethoxy)quinazolin-7-yl)-7-fluorobenzo[d] thiazol-2-amine] the same measures were 29 nM, 8250 nM and 11 nM.
The matching figures for `Nc1nc2c(-c3c(Cl)cc4c(N5C[C@H]6C[C@@H](C5)N6)nc(OCC56CCCN5CC(F)(F)C6)nc4c3F)ccc(F)c2s1` (stereo partly drawn) [Example 14, 4-(4-((1R,5S)-3,6-diazabicyclo[3.1.1]heptan-3-yl)-6-chloro-2-((2,2-difluorotetrahydro-1H-pyrrolizin-7a(5H)-yl)methoxy)-8-fluoroquinazolin-7-yl)-7-fluorobenzo[d] thiazol-2-amine]: 12 nM, 1500 nM and 14 nM.
For the compound `CN1CCC[C@H]1COc1nc(N2C[C@@H]3CC[C@H]2CN3)c2cc(Cl)c(-c3cccc4sc(N)nc34)c(F)c2n1` [Example 15, 4-(4-((15,4S)-2,5-diazabicyclo[2.2.2]octan-2-yl)-6-chloro-8-fluoro-2-(((S)-1-methylpyrrolidin-2-yl)methoxy)quinazolin-7-yl)benzo[d]thiazol-2-amine], the IC50 in experiment [1] is 21 nM; in experiment [3] (Homo sapiens, A-427, 2 h), 2300 nM. Also, in experiment [2], the “Avg 2 h Coupled Exchange IC50” value turned out to be 14 nM.
For the compound `C[C@H]1CNCCN1c1nc(OC[C@@H]2CCCN2C)nc2c(F)c(-c3cccc4sc(N)nc34)c(Cl)cc12` [Example 16, 4-(6-chloro-8-fluoro-4-((S)-2-methylpiperazin-1-yl)-2-(((S)-1-methylpyrrolidin-2-yl)methoxy)quinazolin-7-yl)benzo[d]thiazol-2-amine], the IC50 was 100 nM in experiment [1] and 4220 nM in experiment [3] (Homo sapiens, A-427, 2 h). Also, in experiment [2], the “Avg 2 h Coupled Exchange IC50” value was 23 nM.
Regarding `Nc1nc2c(-c3c(Cl)cc4c(N5CCNCC5)nc(OC[C@]56CCCN5C[C@H](F)C6)nc4c3F)cccc2s1` [Example 46, 4-(6-chloro-8-fluoro-2-(((2R,7aR)-2-fluorotetra-hydro-1H-pyrrolizin-7a(5H)-yl)methoxy)-4-(piperazin-1-yl)quinazolin-7-yl)benzo[d] thiazol-2-amine], the IC50 in experiment [3] (Homo sapiens, A-427, 2 h) came to 3950 nM.
